Experiments:
[1] = Iodine color number according to DIN 6162:2014-09; assay type: physicochemical
[2] = tested on: Yeast: Candida albicans, Candida valida, Rhodotorula rura, Saccharomyces cerevisiae; assay: Preservation test with periodic inoculation, yeast assessment; assay type: cell-based; conditions: sample stored 60 d at 40° C.
Description: Microbiological results at the start (freshly formulated, i.e. 4-week test series is started immediately) and after 60 days of storage at 40° C. (i.e. the 4-week microbial testing is started with the sample stored at 40° C. for 60 days)
The test described below is carried out in order to ascertain the preserving effect of chemical preservatives in aqueous products and systems, the principle of the described method reflecting the efficacy of chemical preservatives with respect to pot-maintenance of aqueous products/systems under conditions corresponding to the use of laundry products/consumer products by the consumer. For this purpose, the preservatives to be tested are added in those concentrations which correspond to from the literature or to the manufacturer data from the suppliers (e.g. Thor, Speyer). In said test, our orientation was toward the upper range, which, with the exception of VI-containing polymers, had always led to excellent results in the case of aqueous polymers for laundry.
A constant microorganism load is achieved by periodic inoculation of the test batches. Before the swabs of each batch made respectively immediately in parallel with the inoculation. The assessment is made on the basis of the microbial growth of the streaks.
When carrying out said tests, 25 g of the polymer to be tested are weighed in each case into a vessel with a screw cap. The preservatives to be tested are each added in separate batches according to the specified use concentrations. An unpreserved product sample was used in each case for the growth control. Two days after the addition of the preservative, the samples are infected with 0.5 ml of inoculum (2% w/w). The titer of this inoculant solution is 10^9 organisms per ml. The following microorganisms are the test organisms for the preservation test:
• Escherichia coli • Staphylococcus aureus • Pseudomonas aeruginosa • Pseudomonas putida • Burkholderia cepacia • Alcaligenes faecalis Yeast: • Candida albicans • Candida valida • Rhodotorula rura • Saccharomyces cerevisiae
The test batches are inoculated four times altogether and once a week and are streaked on an agar plate once a week; the first streaking is done immediately before the new inoculation. Microbial growth on the agar surface is assessed after a three-day incubation at 25° C. As a precaution, negative swabs are additionally observed for a further three days and reassessed. The preserving effect is effected in a semiquantitative method via the growth of the individual streaks in accordance with the assessment from − via + to +++. The preservative result is repeatedly demonstrably robust, i.e. +++− defines the microbial growth.
When assessing the results, it is assumed that a preservative can be regarded as good if there are batches under the above-described laboratory conditions for a period of four weeks without microbial invasion of the sample, and that, even after the fourth inoculation, no microbial attacks occur growth can be identified. • −−: no growth • −: slight growth, max. 100 colonies • 0: moderate growth, max. 400 colonies • +: uniform growth with individual colonies still easily identifiable • ++: strong growth; too many colonies to be counted, already some extensive growth

[3] = Analysis of active substance: preservative concentration before and after storage in VI-containing polymer solution; assay type: physicochemical; conditions: for active-substance concentration, 0 d, RT: before storage; for active-substance concentration, 14 d, 40° C.: storage 14 d at 40° C.; for active-substance concentration, 28 d, 40° C.: storage 28 d at 40° C.; for active-substance concentration, 60 d 40° C.: storage 60 d at 40° C.
Description: Stability of Preservatives in VI-Containing Polymers:
The following stabilizers for VI-containing polymers (here: aqueous solution of a copolymer of vinylpyrrolidone and vinylimidazole) were tested.
MIT, BIT, CMIT, OIT, DCOIT and iodopropynyl butyl carbamate were determined by RP chromatography with UV detection after dilution of the sample to be tested. An RP18 column was used for this purpose, with an eluent composed of an acid-methanol mixture under isocratic conditions.

[4] = Polymer P5 (HP56) with stabilizer

benzalkonium chloride [BAC]
Iodine color number, 60 d 40° C. ([1]; Polymer P1 with stabilizer): 2.8
Iodine color number, start ([1]; Polymer P1 with stabilizer): 2.6
Iodine color number, 60 d 40° C. ([1]; Polymer P2 with stabilizer): 3.2
Iodine color number, start ([1]; Polymer P2 with stabilizer): 3.0
Iodine color number, 60 d 40° C. ([1]; Polymer P3 with stabilizer): 3.3
Iodine color number, start ([1]; Polymer P3 with stabilizer): 3.2
Iodine color number, 60 d 40° C. ([1]; Polymer P4 with stabilizer): 3.3
Iodine color number, start ([1]; Polymer P4 with stabilizer): 3.2
Iodine color number, 60 d 40° C. [1, 4]: 3.3
Iodine color number, start [1, 4]: 3.3
Iodine color number, 60 d 40° C. ([1]; Polymer P6 with stabilizer): 3.4
Iodine color number, start ([1]; Polymer P6 with stabilizer): 3.3
Iodine color number, 60 d 40° C. ([1]; Polymer P7 with stabilizer): 3.4
Iodine color number, start ([1]; Polymer P7 with stabilizer): 3.3
Iodine color number, 60 d 40° C. ([1]; Polymer P8 with stabilizer): 3.4
Iodine color number, start ([1]; Polymer P8 with stabilizer): 3.3
Iodine color number, 60 d 40° C. ([1]; Polymer P9 with stabilizer): 4.0
Iodine color number, start ([1]; Polymer P9 with stabilizer): 3.7
60 d 40° C., yeast assess., 4th inoculation ([2]; Polymer P1): − (slight growth, max. 100 colonies)
60 d 40° C., yeast assess., 4th inoculation ([2]; Polymer P2): − (slight growth, max. 100 colonies)
60 d 40° C., yeast assess., 4th inoculation ([2]; Polymer P3): − (slight growth, max. 100 colonies)
active-substance concentration, 0 d, RT ([3]; in Polymer P1): 1000 ppm
active-substance concentration, 14 d, 40° C. ([3]; in Polymer P1): 990 ppm
active-substance concentration, 28 d, 40° C. ([3]; in Polymer P1): 990 ppm
active-substance concentration, 60 d 40° C. ([3]; in Polymer P1): 970 ppm
active-substance concentration, 0 d, RT ([3]; in Polymer P2): 1000 ppm
active-substance concentration, 14 d, 40° C. ([3]; in Polymer P2): 990 ppm
active-substance concentration, 28 d, 40° C. ([3]; in Polymer P2): 990 ppm
active-substance concentration, 60 d 40° C. ([3]; in Polymer P2): 970 ppm
active-substance concentration, 0 d, RT ([3]; in Polymer P3): 1000 ppm
active-substance concentration, 14 d, 40° C. ([3]; in Polymer P3): 970 ppm
active-substance concentration, 28 d, 40° C. ([3]; in Polymer P3): 973 ppm
active-substance concentration, 60 d 40° C. ([3]; in Polymer P3): 967 ppm
active-substance concentration, 0 d, RT ([3]; in Polymer P4): 1000 ppm
active-substance concentration, 14 d, 40° C. ([3]; in Polymer P4): 1000 ppm
active-substance concentration, 28 d, 40° C. ([3]; in Polymer P4): 991 ppm
active-substance concentration, 60 d 40° C. ([3]; in Polymer P4): 977 ppm
active-substance concentration, 0 d, RT ([3]; in Polymer P5 (HP56)): 1000 ppm
active-substance concentration, 14 d, 40° C. ([3]; in Polymer P5 (HP56)): 990 ppm
active-substance concentration, 28 d, 40° C. ([3]; in Polymer P5 (HP56)): 90 ppm
active-substance concentration, 60 d 40° C. ([3]; in Polymer P5 (HP56)): 970 ppm
active-substance concentration, 0 d, RT ([3]; in Polymer P6): 1000 ppm
active-substance concentration, 14 d, 40° C. ([3]; in Polymer P6): 990 ppm
active-substance concentration, 28 d, 40° C. ([3]; in Polymer P6): 981 ppm
active-substance concentration, 60 d 40° C. ([3]; in Polymer P6): 976 ppm
active-substance concentration, 0 d, RT ([3]; in Polymer P7): 1000 ppm
active-substance concentration, 14 d, 40° C. ([3]; in Polymer P7): 988 ppm
active-substance concentration, 28 d, 40° C. ([3]; in Polymer P7): 985 ppm
active-substance concentration, 60 d 40° C. ([3]; in Polymer P7): 979 ppm
active-substance concentration, 0 d, RT ([3]; in Polymer P8): 1000 ppm
active-substance concentration, 14 d, 40° C. ([3]; in Polymer P8): 990 ppm
active-substance concentration, 28 d, 40° C. ([3]; in Polymer P8): 990 ppm
active-substance concentration, 60 d 40° C. ([3]; in Polymer P8): 970 ppm
active-substance concentration, 0 d, RT ([3]; in Polymer P9): 1000 ppm
active-substance concentration, 14 d, 40° C. ([3]; in Polymer P9): 990 ppm
active-substance concentration, 28 d, 40° C. ([3]; in Polymer P9): 985 ppm
active-substance concentration, 60 d 40° C. ([3]; in Polymer P9): 975 ppm

Reference: patent US12281225B2, “Process for preparing stable polymers containing vinylimidazole” (BASF SE, priority 2018, dated 2025)
